{
  "source": "paper PMC8624189",
  "about": "“Phenolic Profiles and Biological Activities of Extracts from Edible Wild Fruits Ehretia tinifolia and Sideroxylon lanuginosum” (Foods, 2021)",
  "key": {"[1]": {"tested_on": "HT-29 cells", "assay": "Antiproliferative activity, Alamar Blue, HT-29", "type": "cell-based", "details": "Homo sapiens, 24 h exposure, read-out: Half Maximal Inhibitory Concentration HT-29", "description": "(§1) The antiproliferative effects of extracts of E. tinifolia and S. lanuginosum were assessed using the method described previously by Viveros-Valdez, et al.. HeLa (ATCC® CCL-2), MCF-7 (ATCC® HTB-22) and HT-29 (ATCC® HTB-38) cancer cell lines were used. The cells were seeded in 25 cm^2 tissue culture flasks in Dulbecco’s modified eagle medium (DMEM) mixed with Ham’s nutrients (Ham’s F-12) and supplemented with 10% fetal bovine serum (FBS), adjusting the pH to 7.2. A mixture of antibiotics composed of penicillin and streptomycin (10,000 IU/mL: 10,000 µg/mL; 1 mL of mixture/1 L of medium) was added. Cells were maintained at 37 °C in an incubator under a 5% CO2/95% air atmosphere at constant humidity. Cells were harvested by trypsinization, counted with a hemocytometer, and their viability was confirmed by Trypan Blue (0.4%). The different cancer cell lines were seeded with 5000 cells per well in a 96 well plate."}, "[2]": {"tested_on": "HeLa cells", "assay": "Antiproliferative activity, Alamar Blue, HeLa", "type": "cell-based", "details": "Homo sapiens, 24 h exposure, read-out: Half Maximal Inhibitory Concentration HeLa", "description": "as §1"}, "[3]": {"tested_on": "MCF-7 cells", "details": "read-out: EC50 in inhibiting MCF-7 cell growth; cited from earlier work"}, "[4]": {"tested_on": "erythrocytes", "details": "cited from earlier work"}, "[5]": {"tested_on": "human erythrocytes", "assay": "Protective effect on human erythrocytes (AAPH-induced hemolysis)", "type": "cell-based", "details": "Erythrocyte, 37 °C, 3 h, read-out: Hemolytic Inhibition IC50", "description": "Hemolysis was induced by peroxyl radicals generated by AAPH (2-2'-Azobis (2-amidinopropane dihydrochloride) according to the methodology of Silva-Beltrán et al.. Then, 5 mL of blood was obtained from healthy human volunteers by venipuncture and collected into tubes containing EDTA as an anticoagulant. Erythrocytes were separated from plasma by centrifugation at 1500 rpm for 10 min at room temperature and washed three times with five volumes of phosphate-buffered saline (PBS) (37 mM of NaCl, 2.7 mM of KCI, 8 mM of Na2HPO4, and 2 mM of KH2PO4 w/v) at pH 7.4. Later, erythrocytes were suspended in four volumes of PBS solution to obtain a density of 8 × 10^9 cells/mL. The addition of AAPH to the suspension of washed erythrocytes induces oxidation of membrane lipids and proteins, resulting in hemolysis. The erythrocyte suspension (250 μL) was mixed with 250 μL of fruit extracts dissolved in PBS at concentrations of 500, 750, 1000, 2000 μg/mL and 250 μL of 300 mM AAPH in PBS. The reaction mixture was shaken gently while being incubated at 37 °C for 3 h. […] The supernatant's absorbance was measured in a microplate reader (Agilent BioTek Epoch, Santa Clara, CA, United States) at 540 nm. Percent inhibition was calculated by the following equation:% Inhibition = [[…] × 100] where AAAPH is the absorbance of AAPH at 540 nm and As is the absorbance of the extracts at 540 nm. […]"}},
  "data": [
    {"smiles": "CC(=O)O[C@H]1C(=O)[C@@]2(C)[C@H]([C@H](OC(=O)c3ccccc3)[C@]3(O)C[C@H](OC(=O)[C@H](O)[C@@H](NC(=O)c4ccccc4)c4ccccc4)C(C)=C1C3(C)C)[C@]1(OC(C)=O)CO[C@@H]1C[C@@H]2O", "note": "[taxol, Taxol]", "values": [
      {"measurement": "IC50", "setting": "[1]", "value": "15 ± 1", "unit": "µg/mL"},
      {"measurement": "IC50", "setting": "[2]", "value": "11 ± 2", "unit": "µg/mL"}
    ]},
    {"smiles": "O=c1c(O[C@@H]2O[C@H](CO)[C@@H](O)[C@H](O)[C@H]2O)c(-c2ccc(O)c(O)c2)oc2cc(O)cc(O)c12", "note": "[QG, quercetin glucoside]", "values": [
      {"measurement": "EC50", "setting": "[3]", "value": 46.4, "unit": "µM"}
    ]},
    {"smiles": "Oc1cc(O)c2c(c1)O[C@H](c1ccc(O)c(O)c1)[C@H](O)C2", "note": "[epicatechin]", "values": [
      {"measurement": "hemolysis inhibition IC50", "setting": "[4]", "value": 42.3, "unit": "µg/mL"}
    ]},
    {"smiles": "O=C1O[C@H]([C@@H](O)CO)C(O)=C1O", "note": "[ascorbic acid]", "values": [
      {"measurement": "IC50", "setting": "[5]", "value": "289 ± 20", "unit": "µg/mL"}
    ]}
  ]
}
